In patent publication US6737383B1, “Herbicidal oxadiazolidines” (priority 1999, dated 2004):

Tests used:
cocklebur = assay: Test B pre/postemergence cocklebur; assay type: in vivo, Xanthium strumarium
Method in brief: (§1)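 Response is a visual 0-to-10 score relative to untreated plants, where 0 means no effect and 10 means complete control, taken twelve to sixteen days after application. Treatments went onto soil at planting and onto foliage of 1- to 4-leaf plants, using a surfactant-containing non-phytotoxic solvent.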

duck salad = assay: Test B flood test duck salad; assay type: in vivo, Heteranthera limosa
Method in brief: (§2)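 Flood test on plants grown to the 2-leaf stage; treated plants kept in greenhouse twelve to sixteen days, then visually rated against controls on a 0 (no effect) to 10 (complete control) scale.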

bedstraw = assay: Test B pre/postemergence bedstraw; assay type: in vivo, Galium aparine; settings: Postemergence
Method in brief: as §1

wild oat = assay: Test B pre/postemergence wild oat; assay type: in vivo, Avena fatua
Method in brief: as §1

rice = assay: Test B flood test rice; assay type: in vivo, Oryza sativa
Method in brief: as §2

giant foxtail = assay: Test B pre/postemergence giant foxtail; assay type: in vivo, Setaria faberii
Method in brief: as §1

velvetleaf = assay: Test B pre/postemergence velvetleaf; assay type: in vivo, Abutilon theophrasti
Method in brief: as §1

bamyardgrass = assay: Test B flood test barnyardgrass; assay type: in vivo, Echinochloa crus-galli
Method in brief: as §2

smallflower flatsedge = assay: Test B flood test smallflower flatsedge; assay type: in vivo, Cyperus difformis
Method in brief: as §2

crabgrass = assay: Test B pre/postemergence crabgrass; assay type: in vivo, Digitaria sanguinalis
Method in brief: as §1

sugar beet = assay: Test B pre/postemergence sugar beet; assay type: in vivo, Beta vulgaris
Method in brief: as §1

blackgrass = assay: Test B pre/postemergence blackgrass; assay type: in vivo, Alopecurus myosuroides
Method in brief: as §1

purple nutsedge = assay: Test B pre/postemergence purple nutsedge; assay type: in vivo, Cyperus rotundus
Method in brief: as §1

rape = assay: Test B pre/postemergence rape; assay type: in vivo, Brassica napus
Method in brief: as §1

soybean = assay: Test B pre/postemergence soybean; assay type: in vivo, Glycine max
Method in brief: as §1

surinam grass = assay: Test B pre/postemergence surinam grass; assay type: in vivo, Brachiaria decumbens
Method in brief: as §1

pigweed = assay: Test B pre/postemergence pigweed; assay type: in vivo, Amaranthus retroflexus
Method in brief: as §1

morningglory = assay: Test B pre/postemergence morningglory; assay type: in vivo, Ipomoea hederacea
Method in brief: as §1

wheat = assay: Test B pre/postemergence wheat; assay type: in vivo, Triticum aestivum
Method in brief: as §1

corn = assay: Test B pre/postemergence corn; assay type: in vivo, Zea mays
Method in brief: as §1

[1] = Postemergence, Rate 62 g/ha, scale 0 to 10, 0 is no effect, 10 is complete control
[2] = Postemergence, Rate 125 g/ha, scale of 0 to 10 where 0 is no effect and 10 is complete control
[3] = Postemergence, Rate 250 g/ha, scale of 0 to 10, 0 is no effect, 10 is complete control
[4] = Postemergence, Rate 500 g/ha, scale of 0 to 10 where 0 is no effect and 10 is complete control
[5] = Preemergence, Rate 62 g/ha, scale 0 to 10 (0 no effect, 10 complete control)
[6] = Preemergence, Rate 125 g/ha, scale of 0 to 10 where 0 is no effect and 10 is complete control
[7] = Preemergence, Rate 500 g/ha, scale of 0 to 10 where 0 is no effect and 10 is complete control
[8] = Rate 62 g/ha, flood test species, Pre-emergence, visual evaluation after twelve to sixteen days
[9] = Rate 125 g/ha, under heading Pre-emergence, flood test species, visual evaluation after twelve to sixteen days
[10] = Rate 250 g/ha, Pre-emergence (flood test species), scale 0 to 10, 0 is no effect, 10 is complete control
[11] = Rate 500 g/ha, Pre-emergence section of Table B, 0 to 10 scale (0 no effect, 10 complete control)

Which results are given for C=C(Cn1c(=O)on(C(=O)N(c2ccccc2)C(C)C)c1=O)c1ccc(F)cc1 [Compound 606]?
Plant response rating, Cocklebur (cocklebur; [1]): 0; Plant response rating, Cocklebur (cocklebur; [2]): 0; Cocklebur plant response rating (cocklebur; [3]): 0; Plant response rating, Cocklebur (cocklebur; [4]): 0; Cocklebur plant response rating (cocklebur; [5]): 0; Cocklebur plant response rating (cocklebur; [6]): 0; Cocklebur plant response rating (0 to 10 scale) (cocklebur; Preemergence, Rate 250 g/ha): 0; Plant response rating, Cocklebur (cocklebur; [7]): 0; Plant response rating, Ducksalad (0 to 10 scale, 0 is no effect, 10 is complete control) (duck salad; [8]): 0; Ducksalad plant response rating (0 to 10 scale, 0 is no effect, 10 is complete control) (duck salad; [9]): 0; Ducksalad plant response rating (duck salad; [10]): 0; Ducksalad plant response rating (duck salad; [11]): 0; Plant response rating, Bedstraw (bedstraw; Rate 62 g/ha, scale 0 to 10, 0 is no effect, 10 is complete control): 0; Bedstraw plant response rating (bedstraw; Rate 250 g/ha, scale of 0 to 10, 0 is no effect, 10 is complete control): 0; Plant response rating, Bedstraw (bedstraw; Rate 500 g/ha, scale of 0 to 10 where 0 is no effect and 10 is complete control): 0; Plant response rating, Wild oats (wild oat; [1]): 0; Plant response rating, Wild oats (wild oat; [2]): 0; Wild oats plant response rating (wild oat; [3]): 0; Plant response rating, Wild oats (wild oat; [4]): 0; Wild oats plant response rating (wild oat; [5]): 0; Wild oats plant response rating (wild oat; [6]): 0; Plant response rating, Wild oats (wild oat; [7]): 3; Plant response rating, Rice (0 to 10 scale, 0 is no effect, 10 is complete control) (rice; [8]): 0; Rice plant response rating (0 to 10 scale, 0 is no effect, 10 is complete control) (rice; [9]): 0; Rice plant response rating (rice; [10]): 0; Rice plant response rating (rice; [11]): 0; Plant response rating, Giant foxtail (giant foxtail; [1]): 0; Plant response rating, Giant foxtail (giant foxtail; [2]): 0; Giant foxtail plant response rating (giant foxtail; [3]): 0; Plant response rating, Giant foxtail (giant foxtail; [4]): 3; Giant foxtail plant response rating (giant foxtail; [5]): 0; Giant foxtail plant response rating (giant foxtail; [6]): 6; Plant response rating, Giant foxtail (giant foxtail; [7]): 9; Plant response rating, Velvetleaf (velvetleaf; [1]): 0; Plant response rating, Velvetleaf (velvetleaf; [2]): 0; Velvetleaf plant response rating (velvetleaf; [3]): 0; Plant response rating, Velvetleaf (velvetleaf; [4]): 3; Velvetleaf plant response rating (velvetleaf; [5]): 0; Velvetleaf plant response rating (velvetleaf; [6]): 0; Plant response rating, Velvetleaf (velvetleaf; [7]): 0; Plant response rating, Barnyardgrass (0 to 10 scale, 0 is no effect, 10 is complete control) (bamyardgrass; [8]): 0; Barnyardgrass plant response rating (0 to 10 scale, 0 is no effect, 10 is complete control) (bamyardgrass; [9]): 0; Barnyardgrass plant response rating (bamyardgrass; [10]): 0; Barnyardgrass plant response rating (bamyardgrass; [11]): 0; Plant response rating, S. Flatsedge (0 to 10 scale, 0 is no effect, 10 is complete control) (smallflower flatsedge; [8]): 0; S. Flatsedge plant response rating (0 to 10 scale, 0 is no effect, 10 is complete control) (smallflower flatsedge; [9]): 0; S. Flatsedge plant response rating (smallflower flatsedge; [10]): 0; S. Flatsedge plant response rating (smallflower flatsedge; [11]): 0; Plant response rating, Crabgrass (crabgrass; [1]): 0; Plant response rating, Crabgrass (crabgrass; [2]): 3; Crabgrass plant response rating (crabgrass; [3]): 3; Crabgrass plant response rating (crabgrass; [5]): 0; Plant response rating, Crabgrass (crabgrass; [7]): 8; Plant response rating, Sugarbeets (sugar beet; [1]): 0; Plant response rating, Sugarbeets (sugar beet; [2]): 0; Sugarbeets plant response rating (sugar beet; [3]): 0; Plant response rating, Sugarbeets (sugar beet; [4]): 0; Sugarbeets plant response rating (sugar beet; [5]): 0; Sugarbeets plant response rating (sugar beet; [6]): 0; Plant response rating, Sugarbeets (sugar beet; [7]): 0; Plant response rating, Blackgrass (blackgrass; [1]): 0; Plant response rating, Blackgrass (blackgrass; [2]): 0; Blackgrass plant response rating (blackgrass; [3]): 0; Plant response rating, Blackgrass (blackgrass; [4]): 1; Blackgrass plant response rating (blackgrass; [5]): 0; Blackgrass plant response rating (blackgrass; [6]): 0; Blackgrass plant response rating (0 to 10 scale) (blackgrass; Preemergence, Rate 250 g/ha): 0; Blackgrass plant response rating (blackgrass; [7]): 3; Plant response rating, Nutsedge (purple nutsedge; [1]): 0; Plant response rating, Nutsedge (purple nutsedge; [2]): 0; Plant response rating, Nutsedge (purple nutsedge; [4]): 0; Nutsedge plant response rating (purple nutsedge; [5]): 0; Nutsedge plant response rating (purple nutsedge; [6]): 0; Plant response rating, Nutsedge (purple nutsedge; [7]): 0; Plant response rating, Rape (rape; [2]): 2; Rape plant response rating (rape; [3]): 3; Plant response rating, Rape (rape; [4]): 4; Rape plant response rating (rape; [5]): 0; Rape plant response rating (rape; [6]): 0; Plant response rating, Rape (rape; [7]): 0; Plant response rating, Soybean (soybean; [1]): 1; Plant response rating, Soybean (soybean; [2]): 2; Soybean plant response rating (soybean; [3]): 2; Soybean plant response rating (soybean; [5]): 0; Soybean plant response rating (soybean; [6]): 0; Plant response rating, Soybean (soybean; [7]): 0; Plant response rating, B. signalgrass (surinam grass; [1]): 0; Plant response rating, B. signalgrass (surinam grass; [2]): 0; B. signalgrass plant response rating (surinam grass; [3]): 0; Plant response rating, B. signalgrass (surinam grass; [4]): 0; B. signalgrass plant response rating (surinam grass; [5]): 0; B. signalgrass plant response rating (surinam grass; [6]): 0; B. signalgrass plant response rating (0 to 10 scale, 0 is no effect, 10 is complete control) (surinam grass; Preemergence, Rate 250 g/ha): 0; B. signalgrass plant response rating (surinam grass; [7]): 0; Plant response rating, Redroot pigweed (pigweed; [1]): 0; Plant response rating, Redroot pigweed (pigweed; [2]): 0; Redroot pigweed plant response rating (pigweed; [3]): 1; Plant response rating, Redroot pigweed (pigweed; [4]): 2; Redroot pigweed plant response rating (pigweed; [5]): 0; Redroot pigweed plant response rating (pigweed; [6]): 0; Plant response rating, Redroot pigweed (pigweed; [7]): 0; Plant response rating, Morningglory (morningglory; [1]): 6; Plant response rating, Morningglory (morningglory; [2]): 10; Morningglory plant response rating (morningglory; [3]): 10; Morningglory plant response rating (morningglory; [5]): 0; Morningglory plant response rating (morningglory; [6]): 0; Plant response rating, Morningglory (morningglory; [7]): 0; Plant response rating, Wheat (wheat; [1]): 0; Plant response rating, Wheat (wheat; [2]): 0; Wheat plant response rating (wheat; [3]): 0; Plant response rating, Wheat (wheat; [4]): 0; Wheat plant response rating (wheat; [5]): 0; Wheat plant response rating (wheat; [6]): 0; Plant response rating, Wheat (wheat; [7]): 0; Plant response rating, Corn (corn; [1]): 0; Plant response rating, Corn (corn; [2]): 0; Corn plant response rating (corn; [3]): 0; Plant response rating, Corn (corn; [4]): 0; Corn plant response rating (corn; [5]): 0; Corn plant response rating (corn; [6]): 0; Corn plant response rating (0 to 10 scale) (corn; Preemergence, Rate 250 g/ha): 0; Plant response rating, Corn (corn; [7]): 0
